Experimental data from patent publication US20190358181A1, “METHODS FOR AUTISM SPECTRUM DISORDER PHARMACOTHERAPY” (priority 2017, published 2019).

System: 610 metabolites from 63 biochemical pathways
Experiment: Targeted broad-spectrum plasma metabolomic analysis (LC-MS/MS), paired pre-infusion vs post-infusion (2-days and 6-weeks)
Assay type: in vivo, human
Details: for Linear Ratio / VIP Score / Z Abs / Z Score: plasma
Protocol: Targeted, broad-spectrum, plasma metabolomic analysis of 610 metabolites from 63 biochemical pathways was performed by high performance liquid chromatography and tandem mass spectrometry (LC-MS/MS) on the samples collected from patients in Example 1. Venous blood was collected between the hours of 8 am and 5 pm, at least 3 hours after the last meal, into lithium-heparin vacutainer tubes (BD #367884). Plasma was separated by centrifugation at 900 g×10 minutes at room temperature within one hour of collection. The resulting fresh lithium-heparin plasma was transferred to labeled 1.2 ml or 2.0 ml externally threaded cryotubes with a minimum headspace air gap for storage at −80° C. for analysis. Samples were analyzed on an AB SCIEX QTRAP 5500 triple quadrupole mass spectrometer equipped with a Turbo V electrospray ionization (ESI) source, Shimadzu LC-20A UHPLC system, and a PAL CTC autosampler. Typically, 90 μl of plasma was thawed on ice and transferred to a 1.7 ml Eppendorf tube. Five (5.0) μl of a cocktail containing 25-35 commercial stable isotope internal standards, and 5.0 μl of 57 stable isotope internal standards that were custom-synthesized in E. coli NCM3722, Caenorhabditis elegans N2, and Komagataella phaffii (ATCC 76273; formerly known as Pichia pastoris) by metabolic labeling with 13C-glucose and 13C-bicarbonate, were added, mixed, and incubated for 10 min at 20° C. to permit small molecules and vitamins in the internal standards to associate with plasma binding proteins. Macromolecules (protein, DNA, RNA, glycans, etc.) were precipitated by extraction with 4 volumes (400 μl) of cold (−20° C.), acetonitrile:methanol (50:50) (LCMS grade, Cat #LC015-2.5 and GC230-4, Burdick & Jackson, Honeywell), vortexed vigorously, and incubated on crushed ice for 10 min, then removed by centrifugation at 16,000 g×10 min at 4° C. The supernatants containing the extracted metabolites and internal standards in the resulting 40:40:20 solvent mix of acetonitrile:methanol:water were transferred to labeled cryotubes and stored at −80° C. for LCMS/MS analysis.
LC-MS/MS analysis was performed by scheduled multiple reaction monitoring (sMRM) under Analyst v1.6.2 software control in both negative and positive mode with rapid polarity switching (50 ms). Nitrogen was used for curtain gas (set to 30), collision gas (set to high), ion source gas 1 and 2 (set to 35). The source temperature was 500° C. Spray voltage was set to −4500 V in negative mode and 5500 V in positive mode. The values for Q1 and Q3 mass-to-charge ratios (m/z), declustering potential (DP), entrance potential (EP), collision energy (CE), and collision cell exit potential (CXP) were determined and optimized for each MRM for each metabolite. Ten microliters of extract was injected by PAL CTC autosampler via a 10 μl stainless steel loop into a 250 mm×2.0 mm, 4 μm polymer based NH2 HPLC column (Asahipak NH2P-40 2E, Showa Denko America, Inc., NY) held at 25° C. for chromatographic separation. The mobile phase was solvent A: 95% water with 20 mM (NH4)2CO3 (Sigma, Fluka Cat #74415-250G-F), 5% acetonitrile, and 38 mM NH4OH (Sigma, Fluka Cat #17837-100ML), final pH 9.75; solvent B: 100% acetonitrile. Separation was achieved using the following gradient: 0-3.5 min: 95% B, 3.6-8 min: 85% B, 8.1-13 min: 75% B, 13.5-35 min: 0% B, 36-46 min: 95% B, 46.1 min: end. The flow rate was 200 μl/min. Pump pressures ranged from 920-2600 psi over the course of the gradient. All the samples were kept at 4° C. during analysis. The chromatographic peaks were identified using MultiQuant (v3.0, Sciex), confirmed by manual inspection, and the peak areas integrated. […]

[1] = Fatty Acid Oxidation and Synthesis, 6-weeks
[2] = GABA, Glutamate, Arginine, Ornithine, Proline, 6-weeks
[3] = GABA, Glutamate, Arginine, Ornithine, 2-days
[4] = Gamma-Glutamyl and other Dipeptides, 2-days
[5] = Gamma-Glutamyl and other Dipeptides, 6-weeks
[6] = Gamma-glutamyl-Alanine, 6-weeks
[7] = Glycolysis and Gluconeogenesis Metabolism, 2-days
[8] = Glycolysis and Gluconeogenesis Metabolism, 6-weeks
[9] = Glycosphingolipid Metabolism, 2-days
[10] = Hexose Disaccharide Pool, 6-weeks
[11] = Histidine, Histamine, Carnosine Metabolism, 2-days
[12] = Histidine, Histamine, Carnosine Metabolism, 6-weeks

Cc1ccc(C(=O)Nc2ccc(S(=O)(=O)O)c3cc(S(=O)(=O)O)cc(S(=O)(=O)O)c23)cc1NC(=O)c1cccc(NC(=O)Nc2cccc(C(=O)Nc3cc(C(=O)Nc4ccc(S(=O)(=O)O)c5cc(S(=O)(=O)O)cc(S(=O)(=O)O)c45)ccc3C)c2)c1 [Suramin, suramin]
Increased [1]: 0
Observed Hits in the Top 48 Metabolites [1]: 3
Decreased [2]: 0
Fold Enrichment (Obs/Exp) [2]: 3.0
Fraction of Impact (VIP Score) Explained (% of 94.6) [2]: 4%
Impact (Sum VIP Score) [2]: 3.9
Increased [2]: 2
Observed Hits in the Top 48 Metabolites [2]: 2
Decreased [3]: 0
Fold Enrichment (Obs/Exp) [3]: 3.5
Fraction of Impact (VIP Score) Explained (% of 119.7) [3]: 4%
Impact (Sum VIP Score) [3]: 4.7
Increased [3]: 3
Observed Hits in the Top 61 Metabolites [3]: 3
Decreased [4]: 0
Fold Enrichment (Obs/Exp) [4]: 7.1
Fraction of Impact (VIP Score) Explained (% of 119.7) [4]: 3%
Impact (Sum VIP Score) [4]: 3.8
Increased [4]: 2
Observed Hits in the Top 61 Metabolites [4]: 2
Decreased [5]: 0
Fold Enrichment (Obs/Exp) [5]: 4.5
Fraction of Impact (VIP Score) Explained (% of 94.6) [5]: 2%
Impact (Sum VIP Score) [5]: 2.4
Increased [5]: 1
Observed Hits in the Top 48 Metabolites [5]: 1
Linear Ratio [6]: 1.644
VIP Score [6]: 2.353
Z Abs [6]: 1.725
Z Score [6]: 1.725
Linear Ratio (Glycerol 3-phosphate, 6-weeks): 1.294
VIP Score (Glycerol 3-phosphate, 6-weeks): 2.081
Z Abs (Glycerol 3-phosphate, 6-weeks): 1.731
Z Score (Glycerol 3-phosphate, 6-weeks): 1.731
Linear Ratio (Glycine, 6-weeks): 1.392
VIP Score (Glycine, 6-weeks): 2.523
Z Abs (Glycine, 6-weeks): 1.891
Z Score (Glycine, 6-weeks): 1.891
Linear Ratio (Glycocholic acid, 6-weeks): 2.270
VIP Score (Glycocholic acid, 6-weeks): 1.956
Z Abs (Glycocholic acid, 6-weeks): 1.945
Z Score (Glycocholic acid, 6-weeks): 1.945
Decreased [7]: 0
Fold Enrichment (Obs/Exp) [7]: 2.0
Fraction of Impact (VIP Score) Explained (% of 119.7) [7]: 4%
Impact (Sum VIP Score) [7]: 4.3
Increased [7]: 2
Observed Hits in the Top 61 Metabolites [7]: 2
Decreased [8]: 0
Fold Enrichment (Obs/Exp) [8]: 1.3
Fraction of Impact (VIP Score) Explained (% of 94.6) [8]: 2%
Impact (Sum VIP Score) [8]: 2.1
Increased [8]: 1
Observed Hits in the Top 48 Metabolites [8]: 1
Decreased [9]: 0
Fold Enrichment (Obs/Exp) [9]: 0.6
Fraction of Impact (VIP Score) Explained (% of 119.7) [9]: 2%
Impact (Sum VIP Score) [9]: 2.1
Increased [9]: 1
Observed Hits in the Top 61 Metabolites [9]: 1
Linear Ratio (Guanidinoacetic acid, 6-weeks): 1.217
VIP Score (Guanidinoacetic acid, 6-weeks): 1.644
Z Abs (Guanidinoacetic acid, 6-weeks): 1.254
Z Score (Guanidinoacetic acid, 6-weeks): 1.254
Linear Ratio [10]: 2.121
VIP Score [10]: 1.911
Z Abs [10]: 1.220
Z Score [10]: 1.220
Linear Ratio (Hippuric acid, 6-weeks): 1.602
VIP Score (Hippuric acid, 6-weeks): 1.559
Z Abs (Hippuric acid, 6-weeks): 0.881
Z Score (Hippuric acid, 6-weeks): 0.881
Linear Ratio (Histamine, 6-weeks): 1.219
VIP Score (Histamine, 6-weeks): 2.279
Z Abs (Histamine, 6-weeks): 1.312
Z Score (Histamine, 6-weeks): 1.312
Decreased [11]: 0
Fold Enrichment (Obs/Exp) [11]: 1.8
Fraction of Impact (VIP Score) Explained (% of 119.7) [11]: 2%
Impact (Sum VIP Score) [11]: 1.8
Increased [11]: 1
Observed Hits in the Top 61 Metabolites [11]: 1
Decreased [12]: 0
Fold Enrichment (Obs/Exp) [12]: 2.2
Fraction of Impact (VIP Score) Explained (% of 94.6) [12]: 2%
Impact (Sum VIP Score) [12]: 2.3
Increased [12]: 1
Observed Hits in the Top 48 Metabolites [12]: 1
Linear Ratio (Hydroxyproline, 6-weeks): 1.210
VIP Score (Hydroxyproline, 6-weeks): 2.039
Z Abs (Hydroxyproline, 6-weeks): 3.005
Z Score (Hydroxyproline, 6-weeks): 3.005
Decreased (Krebs Cycle, 2-days): 0
